Patent US20140315850A1, “2',3'-Dideoxy-2'-alpha-Fluoro-2'-beta-C-Methylnucleosides and Prodrugs Thereof” (Nanjing Molecular Research, Inc., priority 2011, published 2014)

What was measured:
[1] = tested on: HCV subgenomic genotype 1b replicon; assay: cell-based HCV replicon assay (luciferase reporter); design: species or system hepatitis C virus (HCV); settings: for EC50: Hepatitis C virus, Huh-7 cells, genotype 1b replicon luc-ubi-neo, 48 h incubation, luciferase activity, read-out: EC50 (concentration of drug inhibiting HCV by 50%); for anti-HCV activity (in words): replicon assay, genotype 1b
Experimental: (§1) The anti-HCV activity and cytotoxicity of compounds disclosed herein were evaluated following patent method (WO/2007/027248).
(§2) The anti-HCV activity and toxicity of the exemplary compounds can be tested in two biological assays—a cell-based HCV replicon assay and cytotoxicity assay (WO 2007/027248).
A human hepatoma cell line (Huh-7) containing replicating HCV subgenomic genotype 1b replicon with a luciferase reporter gene (luc-ubi-neo) was used to evaluate anti-HCV activity of the compounds. In this assay, the level of luciferase signal correlates with the viral RNA replication directly. The HCV replicon-reporter cell line (NK/luc-ubi-neo) was cultured in DMEM medium supplemented with 10% fetal bovine serum and 0.5 mg/ml Geneticin (G418). Cells were maintained in a subconfluent state to ensure high levels of HCV replicon RNA synthesis.
To evaluate the antiviral activity of compounds, serial dilutions were prepared with concentrations ranging from 0.14 to 300 μM. Diluted compounds were transferred to a 96-well plate followed by the addition of replicon cells (6000 cells per well). Cells were incubated with the compounds for 48 h after which luciferase activity was measured. Reduction of luciferase signal reflected the decrease of HCV replicon RNA in the treated cells and used to determine the EC50 value (concentration which yielded a 50% reduction in luciferase activity).

[2] = tested on: Huh-7 cell line (LTR-luc); assay: Cytotoxicity assay (LTR-luc luciferase reporter); type: cell-based, human; settings: in vitro
Experimental: as §1, §2
(§3) II. Cytotoxicity Assay A Huh-7 cell line carrying a luciferase reporter gene (driven by a HIV LTR promoter) stably integrated into the chromosome was used to analyze the cytotoxic effect of the selected compounds. This cell line (LTR-luc) was maintained in DMEM medium with 10% FBS. Design of the cytotoxicity assay was similar to that of the HCV replicon assay. Reduction of luciferase activity in the treated cells correlated with the cytotoxic effect of the test compound and was used to calculate the CC50 value (concentration that inhibited cell growth by 50%).

[3] = Cytotoxicity assay (LTR-luc luciferase reporter); type: cell-based, human; settings: human; Huh-7 LTR-luc cells, luciferase activity; read-out: CC50 (concentration of drug inhibiting cellular growth by 50%)
Experimental: as §1, §2, §3

Structure (SMILES) | EC50 [1] | anti-HCV activity (in words) [1] | cytotoxicity (in words) [2] | CC50 [3]
COc1nc(N)nc2c1ncn2C1OC(CO[P@@](=O)(N[C@@H](C)C(=O)OC2CCCC2)Oc2ccccc2)C[C@@]1(C)F (some centres unmarked) [Compound 25] | 580 nM | potent anti-HCV activity | without significant cytotoxicity | > 100 µM
COC(=O)[C@H](C)NP(=O)(OCC1C[C@@](C)(F)C(n2cnc3c(OC)nc(N)nc32)O1)Oc1ccccc1 (some centres unmarked) [Compound 18] | < 1000 nM | potent anti-HCV activity | without significant cytotoxicity | > 100 µM
COc1nc(N)nc2c1ncn2C1OC(CO)C[C@@]1(C)F (some centres unmarked) [Compound 11] | > 100000 nM | – | – | > 100 µM
COc1nc(N)nc2c1ncn2C1OC(COP(=O)(NCc2ccccc2)OCc2ccccc2C)C[C@@]1(C)F (some centres unmarked) [Compound 17] | < 1000 nM | potent anti-HCV activity | without significant cytotoxicity | 52.2 µM
